Our source for the IC50 and EC50 values is patent publication US11787775B2, “Therapeutic compounds and methods of use” (priority 2020, dated 2023).

What all share (type): binding
For assay [1], the target named is TEAD1 (Homo sapiens (Human), UniProt P28347). Nature of the assay: TEAD lipid pocket TR-FRET (Lipid HTRF) probe competition assay. The conditions noted are these: 30 mins incubation with compound; read-out: Lipid HTRF TEAD1 IC50.
The target of assay [2] is TEAD2 (Homo sapiens (Human), UniProt Q15562). Described as above. Conditions: 30 mins incubation with compound; read-out: Lipid HTRF TEAD2 IC50.
The target in assay [3] is TEAD3 (Homo sapiens (Human), UniProt Q99594). The assay is described as above. Conditions: 30 mins incubation with compound.
Assay [4] concerns the target TEAD4 (Homo sapiens (Human), UniProt Q15561). The description is as above. Conditions: 30 mins incubation with compound; read-out: Lipid HTRF TEAD4 IC50.
In assay [5] the target is TEAD1 YAP50-100 (Homo sapiens (Human), UniProt P28347). The assay can be described thus: TEAD-YAP protein-protein interaction HTRF assay. Conditions: TEAD1 YAP50-100 HTRF combined EC50, 30 mins incubation with compound. The procedure:
(§1) Purified His-tagged TEAD protein (YAP Binding Domain, amino acids 217-447) is pre-incubated with Europium labelled anti-His antibody tracer (Perkin Elmer Cat #AD0110). Small molecule Inhibitors are then incubated with the TEAD-Eu protein complex for 30 minutes or 4 hours to allow for binding to TEAD protein. Biotinylated YAP peptide for TEAD-YAP assays (AA's 50-100) or biotinylated TAZ peptide for TEAD-TAZ assays (AA's 13-57) that has been pre-incubated with streptavidin −xl665 acceptor (CIS-Bio Cat #610SAXAC) or is added to the compound-TEAD mix. The TEAD-YAP-inhibitor mixture is then incubated for 60 minutes at room temperature. All reactions are carried out in a polystyrene plate. After 60 minutes, the plate is read on a plate reader using TR-FRET mode with wavelengths of 665 nm/615 nm. If YAP or TAZ binds to TEAD as expected, a TR-FRET signal results from the proximity of YAP or TAZ and TEAD after binding. If an inhibitor such as peptide 17 (Selleckchem Cat #S8164) interferes with YAP-TEAD or TAZ-TEAD binding, the disruption of the YAP or TAZ:TEAD interaction results in a decrease in TR-FRET signal. The potency of compounds as YAP:TEAD or TAZ:TEAD protein-protein interaction (PPi) inhibitors is determined by an IC50 or EC50 value generated using a non-linear four parameter curve fit. The extent to which representative examples of the disclosed compounds are able to inhibit interaction between TEAD1, TEAD2, TEAD3 or TEAD4 and YAP truncated from amino acids 50-100 or TAZ truncated from amino acids 13-57 as measured by Homogeneous Time Resolved Fluorescence (HTRF) to generate EC50 and IC50 data.
(§2) Note that the “Compound Number” in Table 4 corresponds to the “Compound Number” in Table 1. […]

For assay [6], the target named is TEAD2 YAP50-100 (Homo sapiens (Human), UniProt Q15562). Nature of the assay: TEAD-YAP protein-protein interaction HTRF assay. Conditions: TEAD2 YAP50-100 HTRF combined EC50, 30 mins incubation with compound. The procedure: as §1, §2
The target in assay [7] is TEAD3 YAP50-100 (Homo sapiens (Human), UniProt Q99594). The assay can be described thus: TEAD-YAP protein-protein interaction HTRF assay. Conditions: TEAD3 YAP50-100 HTRF combined EC50, 30 mins incubation with compound. The procedure: as §1, §2
In assay [8] the target is TEAD4 YAP50-100 (Homo sapiens (Human), UniProt Q15561). The assay can be described thus: TEAD-YAP protein-protein interaction HTRF assay. Conditions: TEAD4 YAP50-100 HTRF combined EC50, 30 mins incubation with compound. The procedure:
as §1, §2

Where only a bound is given, the exact number is not on record here.

TEAD4 YAP50-100, sequence (Q15561 217-434): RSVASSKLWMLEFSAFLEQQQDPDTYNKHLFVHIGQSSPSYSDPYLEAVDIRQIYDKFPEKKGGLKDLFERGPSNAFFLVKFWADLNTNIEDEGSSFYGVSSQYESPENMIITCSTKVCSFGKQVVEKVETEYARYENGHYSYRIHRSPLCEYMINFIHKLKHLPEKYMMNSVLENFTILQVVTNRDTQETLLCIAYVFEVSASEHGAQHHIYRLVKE
TEAD3, sequence (Q99594 whole entry, species assumed): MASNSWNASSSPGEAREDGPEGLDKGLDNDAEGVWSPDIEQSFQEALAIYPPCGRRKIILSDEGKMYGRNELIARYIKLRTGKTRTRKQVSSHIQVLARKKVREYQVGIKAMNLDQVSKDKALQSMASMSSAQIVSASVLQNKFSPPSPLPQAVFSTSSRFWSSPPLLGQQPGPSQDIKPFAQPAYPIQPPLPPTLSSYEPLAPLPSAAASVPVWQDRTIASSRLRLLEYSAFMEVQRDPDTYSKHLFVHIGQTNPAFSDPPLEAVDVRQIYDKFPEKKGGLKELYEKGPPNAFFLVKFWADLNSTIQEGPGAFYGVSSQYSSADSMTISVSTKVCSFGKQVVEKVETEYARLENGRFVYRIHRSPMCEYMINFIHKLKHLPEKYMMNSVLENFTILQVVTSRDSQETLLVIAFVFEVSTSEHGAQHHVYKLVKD
TEAD1 YAP50-100, sequence (P28347 209-426): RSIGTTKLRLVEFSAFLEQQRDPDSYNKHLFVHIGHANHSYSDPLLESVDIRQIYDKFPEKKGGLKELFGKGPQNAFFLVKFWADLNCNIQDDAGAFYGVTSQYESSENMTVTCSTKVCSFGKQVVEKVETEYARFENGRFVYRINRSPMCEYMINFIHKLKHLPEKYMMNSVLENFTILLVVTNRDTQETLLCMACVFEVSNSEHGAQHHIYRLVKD
TEAD4, sequence (Q15561 whole entry, species assumed): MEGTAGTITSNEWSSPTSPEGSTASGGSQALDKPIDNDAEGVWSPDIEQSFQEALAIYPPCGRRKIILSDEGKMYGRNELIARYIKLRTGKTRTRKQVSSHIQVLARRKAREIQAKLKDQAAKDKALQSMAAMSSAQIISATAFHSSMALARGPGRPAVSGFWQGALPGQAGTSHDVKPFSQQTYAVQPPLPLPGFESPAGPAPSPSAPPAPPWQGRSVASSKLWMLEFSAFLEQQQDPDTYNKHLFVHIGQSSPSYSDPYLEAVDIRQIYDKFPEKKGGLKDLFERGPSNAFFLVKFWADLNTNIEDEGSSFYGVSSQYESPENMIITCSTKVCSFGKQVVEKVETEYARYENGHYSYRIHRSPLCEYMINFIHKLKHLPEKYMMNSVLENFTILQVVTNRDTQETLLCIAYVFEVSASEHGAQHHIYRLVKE
TEAD2, sequence (Q15562 whole entry): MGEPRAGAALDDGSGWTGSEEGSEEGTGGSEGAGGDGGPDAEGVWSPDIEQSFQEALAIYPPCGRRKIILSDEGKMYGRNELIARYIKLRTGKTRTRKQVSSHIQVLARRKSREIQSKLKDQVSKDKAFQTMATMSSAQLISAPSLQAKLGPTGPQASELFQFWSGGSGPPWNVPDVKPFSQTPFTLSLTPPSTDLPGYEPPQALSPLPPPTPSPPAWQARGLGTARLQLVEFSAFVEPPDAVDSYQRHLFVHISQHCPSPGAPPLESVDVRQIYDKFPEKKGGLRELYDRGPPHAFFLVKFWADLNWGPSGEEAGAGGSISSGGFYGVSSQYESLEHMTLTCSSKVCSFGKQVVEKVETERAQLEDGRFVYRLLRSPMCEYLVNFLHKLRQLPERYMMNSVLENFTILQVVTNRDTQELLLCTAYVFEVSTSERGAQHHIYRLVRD
TEAD2 YAP50-100, sequence (Q15562 217-447): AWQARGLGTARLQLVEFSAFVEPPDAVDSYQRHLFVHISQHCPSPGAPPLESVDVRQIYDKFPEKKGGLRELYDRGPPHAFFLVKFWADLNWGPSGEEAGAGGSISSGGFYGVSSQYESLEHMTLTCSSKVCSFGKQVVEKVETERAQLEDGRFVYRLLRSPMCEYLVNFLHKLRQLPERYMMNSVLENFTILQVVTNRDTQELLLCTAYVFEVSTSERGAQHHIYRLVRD
TEAD1, sequence (P28347 whole entry, species assumed): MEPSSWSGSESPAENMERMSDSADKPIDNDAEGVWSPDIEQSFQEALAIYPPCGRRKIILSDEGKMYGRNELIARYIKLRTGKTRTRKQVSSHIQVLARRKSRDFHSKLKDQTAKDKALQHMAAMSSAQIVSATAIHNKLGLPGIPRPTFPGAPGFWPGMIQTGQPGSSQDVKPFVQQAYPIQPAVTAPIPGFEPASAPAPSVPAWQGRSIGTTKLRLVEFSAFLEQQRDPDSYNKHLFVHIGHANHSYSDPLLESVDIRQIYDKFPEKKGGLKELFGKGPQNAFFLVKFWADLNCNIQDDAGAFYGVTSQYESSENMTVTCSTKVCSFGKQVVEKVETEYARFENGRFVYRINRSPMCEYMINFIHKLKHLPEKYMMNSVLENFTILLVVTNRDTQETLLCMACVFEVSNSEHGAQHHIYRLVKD
TEAD3 YAP50-100, sequence (Q99594 218-435): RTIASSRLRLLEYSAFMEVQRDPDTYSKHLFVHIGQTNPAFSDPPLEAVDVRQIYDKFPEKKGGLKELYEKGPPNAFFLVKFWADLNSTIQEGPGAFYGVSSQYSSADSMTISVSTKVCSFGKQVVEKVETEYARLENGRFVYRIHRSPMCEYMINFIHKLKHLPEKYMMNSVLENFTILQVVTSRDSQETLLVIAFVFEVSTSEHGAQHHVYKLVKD

Regarding `C=C(CNc1cc(-c2ccc(C(C)C)cc2)c2c(c1C(N)=O)CCO2)C(=O)O` [Compound 34, 2-[[[4-carbamoyl-7-(4-isopropylphenyl)-2,3-dihydrobenzofuran-5-yl]amino]methyl]prop-2-enoic acid], the IC50 in assay [1] is 1800 nM; in assay [2], 970 nM; in assay [3], above 50 µM; in assay [4], 330 nM. The EC50 in assay [5] is 1000 nM; in assay [6] it was 580 nM; in assay [7], above 50 µM; in assay [8], 700 nM.

Regarding `C=C(CNc1cc(-c2ccc(OC(F)(F)F)cc2)c2ncsc2c1C#N)C(N)=O` [Compound 42, 2-[[[7-cyano-4-[4-(trifluoromethoxy)phenyl]-1,3-benzothiazol-6-yl]amino]methyl]prop-2-enamide], the IC50 in assay [1] was 370 nM; in assay [2], 140 nM; in assay [3], above 50 µM; in assay [4], 260 nM. For the same molecule, the EC50 was above 50000 nM in assay [5], above 50000 nM in assay [6], above 50 µM in assay [7] and above 50000 nM in assay [8].

With `C=C(CNc1cc(-c2ccc(C(C)C)cn2)c2c(c1C#N)CCO2)C(=O)O` [Compound 47, 2-[[[4-cyano-7-(5-isopropyl-2-pyridyl)-2,3-dihydrobenzofuran-5-yl]amino]methyl]prop-2-enoic acid], the IC50 was 2200 nM in assay [1], 2700 nM in assay [2], above 50 µM in assay [3] and 1500 nM in assay [4]. Also, the EC50 in assay [5] is 1900 nM; in assay [6] it was 1900 nM; in assay [7], above 50 µM; in assay [8] it was 3400 nM.

For `C=C(CNc1cc(-c2ccc(C(C)C)cc2)c2c(c1S(C)(=O)=O)CCO2)C(=O)O` [Compound 50, 2-[[[7-(4-isopropylphenyl)-4-methylsulfonyl-2,3-dihydrobenzofuran-5-yl]amino]methyl]prop-2-enoic acid], the IC50 in assay [1] was 740 nM; in assay [2] it was 100 nM; in assay [3] it was 44.5 µM; in assay [4], 590 nM. In addition, the EC50 was found to be 530 nM in assay [5], 80 nM in assay [6], 17 µM in assay [7] and 2000 nM in assay [8].
